# Source: PubChem BioAssay (NCI)
#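 Assay format: 96-well plates, 48-hour exposure. At the GI50, growth is halved. TGI is the concentration that stops growth completely.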
# Columns and labels:
# Test in all cases: NCI-60 cell line screen, 48 h
# TK-10 renal = tested on: TK-10 renal
# SF-539 CNS = tested on: SF-539 CNS
# NCI-H23 lung = tested on: NCI-H23 lung
# UO-31 renal = tested on: UO-31 renal
# HCC-2998 colon = tested on: HCC-2998 colon
# HCT-15 colon = tested on: HCT-15 colon
# COLO 205 colon = tested on: COLO 205 colon
# A549 NSCLC = tested on: A549 NSCLC
# SF-295 CNS = tested on: SF-295 CNS
# PC-3 prostate = tested on: PC-3 prostate
# HS 578T breast = tested on: HS 578T breast
Structure (SMILES),TGI (TK-10 renal),TGI (SF-539 CNS),TGI (NCI-H23 lung),TGI (UO-31 renal),TGI (HCC-2998 colon),TGI (HCT-15 colon),TGI (COLO 205 colon),TGI (A549 NSCLC),TGI (SF-295 CNS),GI50 (TK-10 renal),GI50 (PC-3 prostate),TGI (PC-3 prostate),GI50 (SF-295 CNS),GI50 (UO-31 renal),GI50 (HCC-2998 colon),TGI (HS 578T breast),GI50 (HCT-15 colon),GI50 (COLO 205 colon),GI50 (A549 NSCLC),GI50 (HS 578T breast)
O=S(O)CCCSSSCCCS(=O)O,> 100 µM,> 100 µM,> 100 µM,> 100 µM,> 100 µM,–,–,–,–,–,–,–,–,–,–,–,–,–,–,–
CN(C)c1cccc(OC(=O)NCCCl)c1,–,> 100 µM,> 100 µM,> 100 µM,> 100 µM,> 100 µM,> 100 µM,> 100 µM,> 100 µM,–,–,–,–,–,–,–,–,–,–,–
c1csc(-c2ccc(CNc3c4ccccc4nc4ccccc34)cc2)c1,3.28 µM,–,–,2.57 µM,3.01 µM,–,–,–,2.67 µM,1.76 µM,1.08 µM,2.47 µM,1.31 µM,1.19 µM,1.53 µM,–,–,–,–,–
COC(=O)c1sc2c(c1C(=O)OC)C(=NC(C)(C)C)SC2=NC(C)(C)C,33.2 µM,34.1 µM,34.5 µM,2.43 µM,28.3 µM,34.3 µM,34 µM,41.8 µM,36.6 µM,–,–,37 µM,–,–,–,57.5 µM,–,–,–,–
c1ccc2c(c1)SCCc1cn[nH]c1-2,–,> 100 µM,> 100 µM,> 100 µM,> 100 µM,> 100 µM,> 100 µM,> 100 µM,> 100 µM,–,–,–,–,–,–,–,–,–,–,–
Nc1ccc(Cn2ccc3c4c(N)nc(N)nc4ccc32)cc1,13.6 µM,4.15 µM,7.86 µM,19 µM,3 µM,17.6 µM,2.72 µM,15.2 µM,2.15 µM,–,–,16.8 µM,–,–,–,7.32 µM,–,–,–,–
N#C/C(=C\c1ccc([N+](=O)[O-])o1)c1n[nH]c(Cc2ccccc2)n1,4.15 µM,5.78 µM,2.89 µM,9.74 µM,3.12 µM,–,2.74 µM,15 µM,20.1 µM,–,–,7.43 µM,–,–,–,21 µM,–,–,–,–
COCCNCc1ccc(-c2cc3nccc(Oc4ccc(NC(=O)C5(C(=O)Nc6ccc(F)cc6)CC5)cc4F)c3s2)nc1,4.43 µM,–,–,–,–,4.57 µM,3.68 µM,4.15 µM,–,2.21 µM,1.81 µM,5 µM,–,–,–,4 µM,1.68 µM,1.55 µM,1.71 µM,1.06 µM
S=c1[nH]n2c(COc3ccc(Cl)cc3)nnc2s1,> 100 µM,> 100 µM,> 100 µM,> 100 µM,> 100 µM,> 100 µM,> 100 µM,> 100 µM,> 100 µM,–,–,> 100 µM,–,–,–,–,–,–,–,–
O=C1C(c2c(O)[nH]c3ccc(Cl)cc23)=Nc2ccccc21,18.8 µM,17.9 µM,40.1 µM,2.25 µM,> 26.8 µM,> 100 µM,> 100 µM,20.7 µM,> 78.8 µM,–,–,> 28 µM,–,–,–,24.1 µM,–,–,–,–
NNC(=O)CCc1ccc2ccc3ccccc3c2c1,> 100 µM,> 100 µM,> 100 µM,> 100 µM,> 100 µM,> 100 µM,> 100 µM,–,> 100 µM,–,–,> 100 µM,–,–,–,> 100 µM,–,–,–,–
Cc1cccc2c1Sc1ccccc1C2NC(=O)CN(C)C (stereo unspecified),> 100 µM,> 100 µM,> 100 µM,> 100 µM,> 100 µM,> 100 µM,> 100 µM,> 100 µM,–,–,–,–,–,–,–,–,–,–,–,–
CSCC(CO)NC(=O)/C=C/c1c(C)[nH]c(=O)[nH]c1=O (stereo unspecified),–,> 875 µM,> 875 µM,> 875 µM,479 µM,> 875 µM,> 775 µM,> 875 µM,> 875 µM,–,–,–,–,–,–,–,–,–,–,–
Cc1ccc(C(C)C)c(OCC(=O)N/N=C/c2c[nH]c3ccc(Br)cc23)c1,9.15 µM,4 µM,14.2 µM,13.7 µM,–,14.9 µM,3.55 µM,12.5 µM,10.7 µM,–,–,4.43 µM,–,–,–,20.2 µM,–,–,–,–
NNC(=O)c1cc([N+](=O)[O-])ccc1NC(=O)C12CC3CC(CC(C3)C1)C2,59.5 µM,50.1 µM,> 100 µM,31.5 µM,83.4 µM,3.42 µM,64.2 µM,51.7 µM,63 µM,–,–,> 100 µM,–,–,–,28.8 µM,–,–,–,–
Clc1cc(OCc2nn3c(Cc4ccccc4)nnc3s2)c(Cl)cc1OCc1nn2c(Cc3ccccc3)nnc2s1,> 100 µM,> 100 µM,> 100 µM,> 100 µM,> 100 µM,> 100 µM,> 100 µM,> 100 µM,> 100 µM,–,–,> 100 µM,–,–,–,> 100 µM,–,–,–,–
O=C(Sc1n[nH]c(=O)[nH]c1=O)c1cccc2nc3ccccc3nc12,> 100 µM,> 100 µM,26.8 µM,–,> 100 µM,> 100 µM,5.76 µM,50.4 µM,> 100 µM,–,–,–,–,–,–,77.8 µM,–,–,–,–
CO/C=C1\OC(=O)C=C1OC,–,> 100 µM,> 100 µM,> 100 µM,> 100 µM,> 100 µM,> 100 µM,> 100 µM,> 100 µM,–,–,–,–,–,–,–,–,–,–,–
CN(c1ccccc1)c1nc(=[N+]2CCCC2)ss1,> 100 µM,–,–,> 100 µM,> 100 µM,> 100 µM,> 100 µM,> 100 µM,–,–,–,–,–,–,–,–,–,–,–,–
CC(=O)OC1CC(OC2C(O)CC(OC3C(O)CC(OC4CCC5(C)C(CCC6C5CCC5(C)C(C7=CC(=O)OC7)CCC65O)C4)OC3C)OC2C)OC(C)C1OC1OC(CO)C(O)C(O)C1O (stereo unspecified),0.149 µM,0.0352 µM,0.0233 µM,0.13 µM,0.29 µM,0.0679 µM,0.168 µM,0.0221 µM,0.142 µM,–,–,0.159 µM,–,–,–,0.0926 µM,–,–,–,–
CC1(C)N=C(c2ccccc2)SC12S[C@@H]1CCCC[C@H]1S2,> 100 µM,> 100 µM,31.3 µM,> 100 µM,–,> 100 µM,> 100 µM,> 100 µM,> 100 µM,–,–,> 100 µM,–,–,–,16.8 µM,–,–,–,–
COc1cc(NCCC(=O)O)c2ncccc2c1,> 100 µM,–,> 100 µM,> 100 µM,–,> 100 µM,–,> 100 µM,> 100 µM,–,–,> 100 µM,–,–,–,> 100 µM,–,–,–,–
